Assay results as given in patent US11793845B2, “Composition for ameliorating peripheral sensory neuropathy” (KINKI UNIVERSITY, priority 2016, dated 2023).

How the values were obtained:
Type in all cases: in vivo
[1] = tested on: Peripheral Sensory Neuropathy Induced by Paclitaxel in Mice; assay: cold plate test, paclitaxel-induced peripheral sensory neuropathy; settings: duloxetine 30 mg/kg daily
Method: The effect of the Lentinus edodes mycelium extract on the paresthesia to cold stimulation was tested by performing the cold plate test. The mice in the three groups in the above (1) were put on a cold plate set to 10° C. and a response time for avoidance (a latency) was measured. The shorter latency means that the mouse avoids the cold stimulation of the cold plate more.
In the present test, the mice were divided into four groups by a difference in test objects. As in Example 1, male Balb/c mice of 6 to 7 weeks old were used. The mice were divided into a total of four groups, a control group, a paclitaxel administration group, and two different paclitaxel and Lentinus edodes mycelium extract administration groups (paclitaxel+Lentinus edodes mycelium extract administration groups). […] Further, a group in which the Lentinus edodes mycelium extract was administered to each mouse once a day at a dose of 1 g/kg (hereinafter referred to as “1 g/kg administration group”) and a group in which the Lentinus edodes mycelium extract was administered to each mouse once a day at a dose of 2 g/kg (hereinafter referred to as “2 g/kg administration group”) were prepared.
Evaluation was performed in the same manner as in the test with oxaliplatin. Referring to FIG. 4, the horizontal axis indicates the elapsed time after administration (days) and the vertical axis indicates the avoidance response time (seconds). Open circles with a solid line represent the control group. Filled circles with a solid line represent the group in which only paclitaxel was administered. Open squares with a dash line and filled squares with a dash line represent the groups in which paclitaxel and the Lentinus edodes mycelium extract were administered at the same time (paclitaxel+Lentinus edodes mycelium extract administration groups). […] When the difference with the control group was determined to be significant using a significance level of 5%, the data were marked by “*”. […]

[2] = tested on: Peripheral Sensory Neuropathy Induced by Oxaliplatin in Mice; assay: cold plate test, oxaliplatin-induced peripheral sensory neuropathy; settings: duloxetine 30 mg/kg daily
Method: (§1) Male Balb/c mice of 6 to 7 weeks old were used. The mice were divided into three groups: a control group, an oxaliplatin administration group, and an oxaliplatin and Lentinus edodes mycelium extract administration group (oxaliplatin+Lentinus edodes mycelium extract administration group). Oxaliplatin was administered to each mouse once a day at a dose of 6 mg/kg. Further, the Lentinus edodes mycelium extract was administered to each mouse once a day at a dose of 2 g/kg.
(§2) Further, the number of times of administration was set to once a week (on Day 0, Day 7, and Day 14) for oxaliplatin and daily (from Day 0 to Day 15) for the Lentinus edodes mycelium extract in both the von Frey test and the cold plate test below.
Oxaliplatin was administered to each mouse once a day at a dose of 6 mg/kg. Further, the Lentinus edodes mycelium extract was administered to each mouse once a day at a dose of 2 g/kg three days or six days after the administration of oxaliplatin. These groups are referred to as “Lentinus edodes mycelium extract 3-day delayed administration group” and “Lentinus edodes mycelium extract 6-day delayed administration group”, respectively.
Further, groups in which duloxetine was administered after the administration of oxaliplatin were prepared for comparison.

[3] = tested on: Peripheral Sensory Neuropathy Induced by Vincristine in Mice; assay: von Frey test, vincristine-induced peripheral sensory neuropathy; settings: duloxetine 30 mg/kg daily
From the text: The mice in the three groups in the above (1) were put in a cage and a filament having a strength of 0.16 g was pressed on the plantar surface of the leg to measure the number of times (a score) of avoidance response.
In the present test, the mice were divided into three groups by a difference in test objects. As in Example 1, male Balb/c mice of 6 to 7 weeks old were used. The mice were divided into a total of three groups, a control group, a vincristine administration group, and a vincristine and Lentinus edodes mycelium extract administration group (vincristine+Lentinus edodes mycelium extract administration group).
Vincristine was administered to each mouse once a day at a dose of 0.2 mg/kg. Further, the Lentinus edodes mycelium extract was administered to each mouse once a day at a dose of 2 g/kg.
Further, the number of times of administration was set to once a week (on Day 0, Day 7, and Day 14) for vincristine and daily (from Day 0 to Day 15) for the Lentinus edodes mycelium extract in both the von Frey test and the cold plate test below.
Evaluation was performed in the same manner as in the test with oxaliplatin in Example 1. Referring to FIG. 5, the horizontal axis indicates an elapsed time after administration (days) and the vertical axis indicates the avoidance response (scores). Open circles with a solid line represent the control group. Filled circles with a solid line represent the group in which only vincristine was administered. Open squares with a dash line represent the group in which vincristine and the Lentinus edodes mycelium extract were administered at the same time (vincristine+Lentinus edodes mycelium extract administration group). When the difference with the control group was determined to be significant using a significance level of 5%, the data were marked by “*”.
In the present test, the mice were divided into six groups by a difference in test objects. As in Example 1, male Balb/c mice of 6 to 7 weeks old were used. […]

[4] = tested on: Peripheral Sensory Neuropathy Induced by Oxaliplatin in Mice; assay: von Frey test, oxaliplatin-induced peripheral sensory neuropathy
Method: as §1, §2
The higher number of times of avoidance means that the mouse avoids the stimulation by the filament more. […] When the difference with the control group was determined to be significant using a significance level of 5%, the data were marked by “*”.

Compound: CNCC[C@H](Oc1cccc2ccccc12)c1cccs1 [duloxetine]
- latency compared with paclitaxel administration group, cold plate test ([1]; 3-day delayed after paclitaxel): almost the same as that in the paclitaxel administration group
- latency, cold plate test ([1]; 6-day delayed after paclitaxel): same tendency as that in the duloxetine 3-day delayed administration group
- latency compared with oxaliplatin administration group, cold plate test ([2]; 3-day delayed after oxaliplatin): almost the same as that in the oxaliplatin administration group
- latency, cold plate test ([2]; 6-day delayed after oxaliplatin): same tendency as that in the duloxetine 3-day delayed administration group
- avoidance score compared with vincristine administration group, von Frey test ([3]; 3-day delayed after vincristine): almost the same score as that in the vincristine administration group
- avoidance score, von Frey test ([3]; 6-day delayed after vincristine): same tendency as that in the duloxetine 3-day delayed administration group
- avoidance score compared with oxaliplatin administration group, von Frey test ([4]; duloxetine 30 mg/kg daily Day 3 to Day 23 (3-day delayed) after oxaliplatin 6 mg/kg weekly): almost the same score as that in the oxaliplatin administration group
- avoidance score, von Frey test ([4]; duloxetine 30 mg/kg daily Day 6 to Day 23 (6-day delayed) after oxaliplatin 6 mg/kg weekly): same tendency as that in the duloxetine 3-day delayed administration group
